{"source": "patent US10751390B2", "about": "“Lipidated peptides as neuroprotective agents” (USTAV ORGANICKE CHEMIE A BIOCHEMIE AV CR, V.V.I., priority 2014, dated 2020)", "type_in_all_cases": "in vivo", "key": {"Tau protein [1]": {"system": "Tau protein", "experiment": "Western blot of Tau phosphorylation in hippocampi of 6-month-old MSG mice after 14-day treatment", "settings": "14 days SC twice a day, liraglutide 0.2 mg/kg, vs saline", "procedure": "(§1) Groups of MSG mice (n=10 animals per group) were for 14 days SC administered with liraglutide at a dose 0.2 mg/kg, or palmitoylated analog of PrRP31 at a dose 5 mg/kg, or palmitoylated analog with PrRP31 with dichlorophenylalanin in position 31 at a dose 5 mg/kg dissolved in saline, twice a day, at 8 a.m. and 6:00 p.m. Control mice (n=10 animals per group), NMRI and MSG, were injected in the same manner with saline (the volume was always 0.2 ml/mouse).\n(§2) Overnight (15 hours) fasted mice with ad libitum access to water were weighed, and their plasma glucose concentration was measured using Glucocard glucometer. After decapitation, the brains were dissected on ice, and cut between hemispheres. For immunohistochemical staining the half of the brain was fixed for 24 hours in 4% paraformaldehyde and dehydrated in 70% ethanol, afterward. For the western blot (WB) analysis, the hippocampus was dissected from the second half of the brain, and lysed in cold lysis buffer (62.5 mmol·l^−1 Tris-HCl, pH 6.8 with 1% sodium deoxycholate, 1% Triton X-100 Complete, 50 mmol·l^−1 NaF, 1 mmol·l^−1 Na3VO4), homogenized, sonicated 10 minutes and stored at −20° C. The blood plasma was prepared, and stored at −20° C.\n(§3) In homogenized hippocampi the protein level was measured using BCA kit (Pierce, Thermo Fisher Scientific, Rockfor, Ill., USA), then the samples were diluted in sample buffer (62.5 mmol/l Tris-HCl pH 6.8, 10% glycerol, 2% SDS, 0.01% bromfenol blue, 5% merkaptoethanol, 50 mmol/l NaF and 1 mmol/l Na3VO4) to final concentration […]. WB method and analysis of the results were performed according Nagelová et al. (Nagelova et al., 2014)."}, "[2]": {"system": "insulin signaling cascade (PDK-1, Akt, GSK-3β)", "experiment": "Western blot of insulin signaling cascade in hippocampi of 6-month-old MSG mice after 14-day treatment", "settings": "14 days SC twice a day, liraglutide 0.2 mg/kg, vs saline", "procedure": "as §1, §2, §3"}, "Tau protein [3]": {"system": "Tau protein", "experiment": "Immunohistochemical fluorescent double staining of Tau phosphorylation in CA1 region of hippocampi of MSG mice", "settings": "6-month-old MSG mice, 14 days SC twice a day; liraglutide 0.2 mg/kg, PrRP31 analog 5 mg/kg; epitopes Thr212 and Ser202/Thr205", "procedure": "as §1, §2\nTo verify the results obtained from WB analysis the immunohistochemical staining was performed. Ten micrometer (10 μm) thick sections were prepared at INSERM, Lille, France. […]"}}}
{"substance": "(N-palm)SRTHRHSMEIRTPDINPAWYASRGIRPVGRF-NH2 [palmitoylated analog of PrRP31]", "values": [{"measurement": "not-phosphorylated Tau (antibody Tau1)", "setting": "Tau protein [1]; PrRP31 analog 5 mg/kg", "value": "did not show any significant differences among groups"}, {"measurement": "phosphorylation of Tau protein at epitope Ser396", "setting": "Tau protein [1]; PrRP31 analogs 5 mg/kg", "value": "decreased phosphorylation"}, {"measurement": "phosphorylation of Tau protein at epitope Thr212", "setting": "Tau protein [1]; PrRP31 analogs 5 mg/kg", "value": "decreased phosphorylation"}, {"measurement": "phosphorylation of Tau protein at epitope Thr231", "setting": "Tau protein [1]; PrRP31 analogs 5 mg/kg", "value": "decreased phosphorylation"}, {"measurement": "phosphorylation of Akt (Thr308)", "setting": "[2]; PrRP31 analog 5 mg/kg", "value": "more pronounced phosphorylation"}, {"measurement": "activation of kinases implicated in insulin signaling cascade", "setting": "[2]; PrRP31 analogs 5 mg/kg", "value": "Enhanced activation"}, {"measurement": "phosphorylation of GSK-3β (Ser9)", "setting": "[2]; PrRP31 analogs 5 mg/kg", "value": "more pronounced phosphorylation"}, {"measurement": "Tau phosphorylation in hippocampal region CA1 (fluorescent signal)", "setting": "Tau protein [3]", "value": "decreased"}]}
